Measurements taken from ChEMBL document CHEMBL5390242, “Design, Synthesis, and Antitumor Efficacy of Substituted 2-Amino[1,2,4]triazolopyrimidines and Related Heterocycles as Dual Inhibitors for Microtubule Polymerization and Janus Kinase 2” (J Med Chem, 2023).

How the values were obtained:
[1] = system: HeLa; assay: Antiproliferative activity against human HeLa cells assessed as cell growth inhibition incubated for 48 hrs by MTT assay; type: functional, cell-based
[2] = system: KP-4; assay: Antiproliferative activity against human KP-4 cells assessed as cell growth inhibition incubated for 48 hrs by MTT assay; type: functional, cell-based; conditions: KP-4, 48 h
[3] = system: A549; assay: Antiproliferative activity against human A549 cells assessed as cell growth inhibition incubated for 48 hrs by MTT assay; type: functional, cell-based; conditions: A549, 48 h
[4] = molecular target: T1, Tyrosine-protein kinase JAK2 (Homo sapiens, UniProt O60674); assay: Inhibition of JAK2 (unknown origin) using Poly-(Glu,Tyr 4:1) peptide as substrate at 1 uM in presence of ATP by ADP-Glo reagent based assay relative to control
T1 sequence (O60674 whole entry): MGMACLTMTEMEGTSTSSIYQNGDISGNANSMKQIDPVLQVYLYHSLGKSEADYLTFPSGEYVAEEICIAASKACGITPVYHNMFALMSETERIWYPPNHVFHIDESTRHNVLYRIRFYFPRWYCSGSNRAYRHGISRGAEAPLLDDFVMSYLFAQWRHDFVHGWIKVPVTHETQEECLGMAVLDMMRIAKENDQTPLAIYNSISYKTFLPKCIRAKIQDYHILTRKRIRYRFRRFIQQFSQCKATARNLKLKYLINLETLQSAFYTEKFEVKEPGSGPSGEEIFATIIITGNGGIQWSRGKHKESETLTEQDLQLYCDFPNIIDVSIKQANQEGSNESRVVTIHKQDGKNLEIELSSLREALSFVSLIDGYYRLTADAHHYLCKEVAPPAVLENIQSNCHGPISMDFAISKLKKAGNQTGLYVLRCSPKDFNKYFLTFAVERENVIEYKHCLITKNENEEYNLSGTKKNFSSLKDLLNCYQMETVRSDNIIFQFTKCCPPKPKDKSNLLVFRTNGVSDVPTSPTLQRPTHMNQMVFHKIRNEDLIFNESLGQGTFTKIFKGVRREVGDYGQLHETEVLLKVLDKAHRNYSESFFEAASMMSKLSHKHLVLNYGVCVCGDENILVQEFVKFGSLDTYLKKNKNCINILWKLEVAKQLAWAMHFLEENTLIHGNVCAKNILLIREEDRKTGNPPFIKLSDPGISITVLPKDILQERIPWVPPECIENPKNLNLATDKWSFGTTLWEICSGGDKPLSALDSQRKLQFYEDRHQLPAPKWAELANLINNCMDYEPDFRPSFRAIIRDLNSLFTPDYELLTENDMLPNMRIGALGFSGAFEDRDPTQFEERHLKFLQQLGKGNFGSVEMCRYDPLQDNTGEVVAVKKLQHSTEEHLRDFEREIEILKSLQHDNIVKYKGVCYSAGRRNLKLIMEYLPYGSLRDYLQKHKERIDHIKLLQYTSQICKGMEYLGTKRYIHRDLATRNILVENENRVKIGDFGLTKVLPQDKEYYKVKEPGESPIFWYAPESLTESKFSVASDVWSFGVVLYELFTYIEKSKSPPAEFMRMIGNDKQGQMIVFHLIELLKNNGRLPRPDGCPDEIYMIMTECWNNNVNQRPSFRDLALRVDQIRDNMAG

[5] = Metabolic stability in mouse liver microsomes assessed as half life incubated for 10 mins in presence of NADPH by LC-MS/MS analysis; type: ADME, Microsome
[6] = system: BXPC-3; assay: Antiproliferative activity against human BXPC-3 cells assessed as cell growth inhibition incubated for 48 hrs by MTT assay; type: functional, cell-based; conditions: BXPC-3, 48 h
[7] = molecular target: T1, Tyrosine-protein kinase JAK2; assay: Inhibition of JAK2 (unknown origin) using Poly-(Glu,Tyr 4:1) peptide as substrate in presence of ATP by ADP-Glo reagent based assay
[8] = molecular target: Tyrosine-protein kinase JAK1 (Homo sapiens, UniProt P23458); assay: Inhibition of JAK1 (unknown origin) using Poly-(Glu,Tyr 4:1) peptide as substrate in presence of ATP by ADP-Glo reagent based assay
Sequence of Tyrosine-protein kinase JAK1 (P23458 whole entry): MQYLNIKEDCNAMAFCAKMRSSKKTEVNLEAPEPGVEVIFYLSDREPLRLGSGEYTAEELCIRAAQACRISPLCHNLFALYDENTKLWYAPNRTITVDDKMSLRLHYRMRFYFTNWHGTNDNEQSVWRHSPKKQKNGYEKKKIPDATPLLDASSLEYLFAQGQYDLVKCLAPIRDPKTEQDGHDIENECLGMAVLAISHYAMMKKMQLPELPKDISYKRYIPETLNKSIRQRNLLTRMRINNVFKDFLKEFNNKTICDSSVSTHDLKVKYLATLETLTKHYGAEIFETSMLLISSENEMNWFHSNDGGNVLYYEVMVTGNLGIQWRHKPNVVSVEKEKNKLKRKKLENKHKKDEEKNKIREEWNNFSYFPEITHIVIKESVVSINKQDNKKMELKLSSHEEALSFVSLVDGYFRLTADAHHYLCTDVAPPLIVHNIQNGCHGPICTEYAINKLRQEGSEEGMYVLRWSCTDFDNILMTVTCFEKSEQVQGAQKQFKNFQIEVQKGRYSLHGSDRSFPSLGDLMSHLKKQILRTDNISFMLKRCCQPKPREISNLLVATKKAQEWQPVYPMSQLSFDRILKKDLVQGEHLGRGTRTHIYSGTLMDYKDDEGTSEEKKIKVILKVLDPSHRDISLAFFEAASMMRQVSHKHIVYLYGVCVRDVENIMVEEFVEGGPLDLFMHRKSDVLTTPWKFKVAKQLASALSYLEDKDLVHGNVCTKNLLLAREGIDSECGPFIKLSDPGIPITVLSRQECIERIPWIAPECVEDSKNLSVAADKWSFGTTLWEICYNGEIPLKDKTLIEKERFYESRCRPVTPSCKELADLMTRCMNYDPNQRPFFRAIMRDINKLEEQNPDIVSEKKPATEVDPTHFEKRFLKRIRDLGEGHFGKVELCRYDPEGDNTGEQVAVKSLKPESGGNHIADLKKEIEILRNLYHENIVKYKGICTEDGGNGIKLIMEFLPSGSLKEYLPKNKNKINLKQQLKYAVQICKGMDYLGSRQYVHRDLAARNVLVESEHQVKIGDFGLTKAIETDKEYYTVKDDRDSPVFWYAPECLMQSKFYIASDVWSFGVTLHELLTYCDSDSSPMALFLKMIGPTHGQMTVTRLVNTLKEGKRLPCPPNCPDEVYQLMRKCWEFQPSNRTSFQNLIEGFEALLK

[9] = system: COLO 205; assay: Cytotoxicity against human COLO 205 cells assessed as cell growth inhibition incubated for 48 hrs by MTT assay; type: functional, cell-based; conditions: COLO 205, 48 h
[10] = system: CWR22R; assay: Cytotoxicity against human 22Rv1 cells assessed as cell growth inhibition incubated for 48 hrs by MTT assay; type: functional, cell-based; conditions: 22Rv1, 48 h
[11] = system: HepG2; assay: Cytotoxicity against human HepG2 cells assessed as cell growth inhibition incubated for 48 hrs by MTT assay; type: functional, cell-based; conditions: HepG2, 48 h
[12] = Cytotoxicity against human ARPE-19 cells assessed as cell growth inhibition incubated for 48 hrs by MTT assay; type: toxicity, cell-based
[13] = Cytotoxicity against human HaCaT cells assessed as cell growth inhibition incubated for 48 hrs by MTT assay; type: toxicity, cell-based
[14] = Cytotoxicity against human L02 cells assessed as cell growth inhibition incubated for 48 hrs by MTT assay; type: toxicity, cell-based
[15] = system: A2780; assay: Antiproliferative activity against human A2780 cells assessed as cell growth inhibition incubated for 48 hrs by MTT assay; type: functional, cell-based; conditions: A2780, 48 h
[16] = system: A2780/Taxol; assay: Antiproliferative activity against human A2780T cells assessed as cell growth inhibition incubated for 48 hrs by MTT assay; type: functional, cell-based
[17] = system: HCT-8; assay: Antiproliferative activity against human HCT-8 cells assessed as cell growth inhibition incubated for 48 hrs by MTT assay; type: functional, cell-based; conditions: HCT-8, 48 h
[18] = Antiproliferative activity against human HCT-8/VCR cells assessed as cell growth inhibition incubated for 48 hrs by MTT assay; type: functional, cell-based
[19] = Antiproliferative activity against human A549/DDP cells assessed as cell growth inhibition incubated for 48 hrs by MTT assay; type: functional, cell-based
[20] = system: HT-29; assay: Antiproliferative activity against human HT-29 cells assessed as cell growth inhibition incubated for 48 hrs by MTT assay; type: functional, cell-based; conditions: HT-29, 48 h
[21] = system: PC-3; assay: Antiproliferative activity against human PC-3 cells assessed as cell growth inhibition incubated for 48 hrs by MTT assay; type: functional, cell-based; conditions: PC-3, 48 h
[22] = Antiproliferative activity against Chinese hamster CHO cells assessed as cell growth inhibition incubated for 48 hrs by MTT assay; type: toxicity, cell-based, Cricetulus griseus
[23] = Antiproliferative activity against Chinese hamster CHO-K1 cells assessed as cell growth inhibition incubated for 48 hrs by MTT assay; type: toxicity, cell-based, Cricetulus griseus
[24] = system: A549; assay: Induction of apoptosis in human A549 cells assessed as viable cells at 500 nM incubated for 24 hrs by Annexin V-FITC/PI staining based flow cytometry (reference value: 93 %); type: functional; conditions: read-out: Activity
[25] = system: A549; assay: Induction of apoptosis in human A549 cells assessed as early apoptotic cells at 500 nM incubated for 24 hrs by Annexin V-FITC/PI staining based flow cytometry (reference value: 4.61 %); type: functional
[26] = system: A549; assay: Induction of apoptosis in human A549 cells assessed as late apoptotic cells at 500 nM incubated for 24 hrs by Annexin V-FITC/PI staining based flow cytometry (reference value: 1.72 %); type: functional
[27] = system: A549; assay: Induction of apoptosis in human A549 cells assessed as necrotic cells at 500 nM incubated for 24 hrs by Annexin V-FITC/PI staining based flow cytometry (reference value: 0.67 %); type: functional
[28] = system: A549; assay: Induction of mitochondrial membrane potential loss in human A549 cells by measuring red fluorescence at 500 nM incubated for 16 hrs by JC-1 staining based flow cytometry analysis (reference value: 99.3 %); type: functional
[29] = system: A549; assay: Induction of mitochondrial membrane potential loss in human A549 cells by measuring green fluorescence at 500 nM incubated for 16 hrs by JC-1 staining based flow cytometry analysis (reference value: 0.7 %); type: functional
[30] = system: MCF7; assay: cells; conditions: Homo sapiens, MCF7, 48 h
Description: Antiproliferative activity against human MCF7 cells assessed as cell growth inhibition incubated for 48 hrs by MTT assay

[31] = system: NCI/ADR-RES; assay: cells; conditions: Homo sapiens, 48 h
Description: Antiproliferative activity against human MCF7ADR cells assessed as cell growth inhibition incubated for 48 hrs by MTT assay

[32] = system: A549; assay: Induction of apoptosis in human A549 cells assessed as viable cells at 50 nM incubated for 24 hrs by Annexin V-FITC/PI staining based flow cytometry (reference value: 93 %); type: functional; conditions: read-out: Activity
[33] = system: A549; assay: Induction of apoptosis in human A549 cells assessed as early apoptotic cells at 50 nM incubated for 24 hrs by Annexin V-FITC/PI staining based flow cytometry (reference value: 4.61 %); type: functional
[34] = system: A549; assay: Induction of apoptosis in human A549 cells assessed as late apoptotic cells at 50 nM incubated for 24 hrs by Annexin V-FITC/PI staining based flow cytometry (reference value: 1.72 %); type: functional
[35] = system: A549; assay: Induction of apoptosis in human A549 cells assessed as necrotic cells at 50 nM incubated for 24 hrs by Annexin V-FITC/PI staining based flow cytometry (reference value: 0.67 %); type: functional
[36] = system: A549; assay: Induction of mitochondrial membrane potential loss in human A549 cells by measuring red fluorescence at 50 nM incubated for 16 hrs by JC-1 staining based flow cytometry analysis (reference value: 99.3 %); type: functional
[37] = system: A549; assay: Induction of mitochondrial membrane potential loss in human A549 cells by measuring green fluorescence at 50 nM incubated for 16 hrs by JC-1 staining based flow cytometry analysis (reference value: 0.7 %); type: functional

## CN1CCN(c2cccc(Nc3nc4c(-c5ccc(S(C)(=O)=O)cc5)cccn4n3)c2)CC1
[1]
  IC50: 1260 nM
[2]
  IC50: 372 nM
[3]
  IC50: 358 nM
[4]
  inhibition: 99%
[5]
  half-life: 13.1 min
[6]
  IC50: 730 nM
[7]
  IC50: 6 nM
[8]
  IC50: 12 nM
[9]
  IC50: 1550 nM
[10]
  IC50: 5790 nM
[11]
  IC50: 2040 nM
[12]
  IC50 at 48 h: 4930 nM
[13]
  IC50 at 48 h: 2830 nM
[14]
  IC50 at 48 h: 388 nM
[15]
  IC50: 289 nM
[16]
  IC50: 394 nM
[17]
  IC50: 1140 nM
[18]
  IC50: 5.78 µM
[19]
  IC50: 1530 nM
[20]
  IC50: 961 nM
[21]
  IC50: 15.1 µM
[22]
  IC50 at 48 h: 172 nM
[23]
  IC50 at 48 h: 0.216 µM
[24]
  viability at 0.5 µM: 65.7%
[25]
  Activity: 14.9%
[26]
  Activity: 16.6%
[27]
  Activity: 2.8%
[28]
  Activity: 96.5%
[29]
  Activity: 3.5%
[30]
  IC50: 1230 nM
[31]
  IC50: 3.53 µM

## COc1cc2c(c(OC)c1OC)-c1ccc(OC)c(=O)cc1[C@@H](NC(C)=O)CC2 [COLCHICINE]
[3]
  IC50: 64 nM
[4]
  inhibition: 5.7%
[6]
  IC50: 41 nM
[9]
  IC50: 12.8 nM
[10]
  IC50: 18 nM
[11]
  IC50: 75 nM
[12]
  IC50 at 48 h: 21.8 nM
[13]
  IC50 at 48 h: 9.3 nM
[14]
  IC50 at 48 h: 269 nM
[20]
  IC50: 31 nM
[21]
  IC50: 0.079 µM
[22]
  IC50 at 48 h: 697 nM
[23]
  IC50 at 48 h: 9.2 µM
[32]
  viability at 0.05 µM: 57%
[33]
  Activity: 15.3%
[34]
  Activity: 24.1%
[35]
  Activity: 3.6%
[36]
  Activity: 93.9%
[37]
  Activity: 0.1%
[30]
  IC50: 46 nM
